Results on 44 molecules are retold here after US12617773B2, “Azetidin-3-ylmethanol derivatives as CCR6 receptor modulators” (Idorsia Pharmaceuticals Ltd, priority 2020, dated 2026).

The experiment deals with T1, human CCR6 (Homo sapiens, UniProt P51684).
T1 construct: expressed in transfected cells; host or cells: HEK-293
T1 sequence (P51684 1-374): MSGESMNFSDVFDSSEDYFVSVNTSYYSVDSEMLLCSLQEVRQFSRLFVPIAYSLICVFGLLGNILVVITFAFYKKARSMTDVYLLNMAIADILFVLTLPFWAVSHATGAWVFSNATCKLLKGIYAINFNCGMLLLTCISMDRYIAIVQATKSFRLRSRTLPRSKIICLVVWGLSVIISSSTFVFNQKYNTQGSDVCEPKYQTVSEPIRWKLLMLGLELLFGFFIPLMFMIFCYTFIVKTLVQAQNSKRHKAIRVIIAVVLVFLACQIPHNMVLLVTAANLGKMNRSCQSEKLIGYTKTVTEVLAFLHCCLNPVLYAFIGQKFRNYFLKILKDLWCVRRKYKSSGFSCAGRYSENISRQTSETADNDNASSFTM
Description: FLIPR assay (inhibition of CCL20-induced calcium signal). The conditions noted are these: HEK-293 cells expressing human CCR6; mean values where determined several times; read-out: FLIPR IC50. It is filed as cell-based. The gist of the method: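 Dye-loaded HEK-293 cells expressing human CCR6 were preincubated with compound for 30 min at room temperature in the dark, then challenged with 10 nM CCL20 (final). Fluorescence was tracked on FLIPR, and baseline-subtracted peak emission over base after agonist addition gave inhibition dose-response curves for IC50.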
As for `CC(C)c1ccc([C@](O)(c2cncc(-c3noc(C(C)(C)O)n3)c2)C2(C)CN(C3CC3)C2)cc1` [Example 449, 2-(3-{5-[(R)-(1-Cyclopropyl-3-methyl-azetidin-3-yl)-hydroxy-(4-isopropyl-phenyl)-methyl]-pyridin-3-yl}-[1,2,4]oxadiazol-5-yl)-propan-2-ol], the half-maximal inhibitory concentration (IC50) (usually the concentration needed to halve the response being measured) was found to be 0.0408 µM.

With `CC(=O)N1CCC(c2nc(-c3cncc([C@@](O)(c4ccc(C(C)C)cc4)C4(C)CN(C5CC5)C4)c3)no2)CC1` [Example 450], the IC50 came out at 0.0578 µM.

Regarding `CC(C)c1ccc([C@](O)(c2cncc(-c3noc(C4CCOCC4)n3)c2)C2(C)CN(C3CC3)C2)cc1` [Example 451], the IC50 is 0.0435 µM.

For `CC(C)c1ccc([C@](O)(c2cncc(-c3noc([C@H]4CC[C@H](O)CC4)n3)c2)C2(C)CN(C3CC3)C2)cc1` [Example 452], the IC50 was determined as 0.0336 µM.

Consider `CC(C)c1ccc([C@](O)(c2cncc(-c3noc(C4COC4)n3)c2)C2(C)CN(C3CC3)C2)cc1` [Example 453], for which the 50% inhibitory concentration (IC50) came out at 0.0581 µM.

Turning to `CC(=O)N1CC[C@H](Cc2nc(-c3cncc([C@@](O)(c4ccc(C(C)C)cc4)C4(C)CN(C)C4)c3)no2)C1` [Example 454, 1-[(R)-3-(3-{5-[(R)-(1,3-Dimethyl-azetidin-3-yl)-hydroxy-(4-isopropyl-phenyl)-methyl]-pyridin-3-yl}-[1,2,4]oxadiazol-5-ylmethyl)-pyrrolidin-1-yl]-ethanone], the half-inhibitory concentration (IC50) was determined as 0.103 µM.

As to `CC(=O)N1CCCC(c2nc(-c3cncc([C@@](O)(c4ccc(C(C)C)cc4)C4(C)CN(C)C4)c3)no2)C1` (some centres unmarked) [Example 455], the half-maximal inhibitory concentration (IC50) is 0.0831 µM.

As for `CC(=O)N1CCCC(O)(c2nc(-c3cncc([C@@](O)(c4ccc(C(C)C)cc4)C4(C)CN(C)C4)c3)no2)C1` (some centres unmarked) [Example 456], the concentration for half-maximal inhibition (IC50) was found to be 0.201 µM.

For `CC(=O)N1CCCC(C)(c2nc(-c3cncc([C@@](O)(c4ccc(C(C)C)cc4)C4(C)CN(C)C4)c3)no2)C1` (some centres unmarked) [Example 457], the IC50 was 0.0564 µM.

For the molecule `CC(=O)N1CCCC(Cc2nc(-c3cncc([C@@](O)(c4ccc(C(C)C)cc4)C4(C)CN(C)C4)c3)no2)C1` (some centres unmarked) [Example 458], the half-inhibitory concentration (IC50) came out at 0.099 µM.

As for `CC(=O)N1CCC(O)(Cc2nc(-c3cncc([C@@](O)(c4ccc(C(C)C)cc4)C4(C)CN(C)C4)c3)no2)CC1` [Example 459], the IC50 worked out at 0.44 µM.

For the molecule `CC(=O)NC1(Cc2nc(-c3cncc([C@@](O)(c4ccc(C(C)C)cc4)C4(C)CN(C)C4)c3)no2)CC1` [Example 460, N-[1-(3-{5-[(R)-(1,3-Dimethyl-azetidin-3-yl)-hydroxy-(4-isopropyl-phenyl)-methyl]-pyridin-3-yl}-[1,2,4]oxadiazol-5-ylmethyl)-cyclopropyl]-acetamide], the IC50 turned out to be 0.469 µM.

Turning to `CC(C)c1ccc([C@](O)(c2cncc(-c3noc(CC4(NC(=O)C5CCOCC5)CC4)n3)c2)C2(C)CN(C)C2)cc1` [Example 461], the IC50 worked out at 0.384 µM.

Take `COCC(=O)NC1(Cc2nc(-c3cncc([C@@](O)(c4ccc(C(C)C)cc4)C4(C)CN(C)C4)c3)no2)CC1` [Example 462]: the concentration for half-maximal inhibition (IC50) turned out to be 0.286 µM.

Take `CC(=O)N(C)C1(Cc2nc(-c3cncc([C@@](O)(c4ccc(C(C)C)cc4)C4(C)CN(C)C4)c3)no2)CC1` [Example 463, N-[1-(3-{5-[(R)-(1,3-Dimethyl-azetidin-3-yl)-hydroxy-(4-isopropyl-phenyl)-methyl]-pyridin-3-yl}-[1,2,4]oxadiazol-5-ylmethyl)-cyclopropyl]-N-methyl-acetamide]: the IC50 was 0.122 µM.

As to `CCC(=O)NC(C)(C)Cc1nc(-c2cncc([C@@](O)(c3ccc(C(C)C)cc3)C3(C)CN(C)C3)c2)no1` [Example 464, N-[2-(3-{5-[(R)-(1,3-Dimethyl-azetidin-3-yl)-hydroxy-(4-isopropyl-phenyl)-methyl]-pyridin-3-yl}-[1,2,4]oxadiazol-5-yl)-1,1-dimethyl-ethyl]-propionamide], the IC50 was determined as 0.129 µM.

Turning to `COCC(=O)NC(C)(C)Cc1nc(-c2cncc([C@@](O)(c3ccc(C(C)C)cc3)C3(C)CN(C)C3)c2)no1` [Example 465], the 50% inhibitory concentration (IC50) is 0.0875 µM.

As for `CC(C)c1ccc([C@](O)(c2cncc(-c3noc(CC(C)(C)NC(=O)C4CCOCC4)n3)c2)C2(C)CN(C)C2)cc1` [Example 466], the IC50 came out at 0.143 µM.

On to `CC(C)C(=O)NC(C)(C)Cc1nc(-c2cncc([C@@](O)(c3ccc(C(C)C)cc3)C3(C)CN(C)C3)c2)no1` [Example 467], for which the IC50 worked out at 0.129 µM.

For `CC(C)c1ccc([C@](O)(c2cncc(-c3noc(CC(C)(C)NC(=O)C4CC4)n3)c2)C2(C)CN(C)C2)cc1` [Example 468], the IC50 was determined as 0.0623 µM.

Take `CC(=O)N1CC[C@H](c2nc(-c3cncc([C@@](O)(c4ccc(C(C)C)cc4)C4(C)CN(C)C4)c3)no2)C[C@@H]1C` [Example 469]: the 50% inhibitory concentration (IC50) was determined as 0.137 µM.

Consider `CC(C)C(=O)N1CCC(O)(c2nc(-c3cncc([C@@](O)(c4ccc(C(C)C)cc4)C4(C)CN(C)C4)c3)no2)CC1` [Example 470], for which the IC50 was determined as 0.131 µM.

For `CCC(=O)N1CCC(O)(c2nc(-c3cncc([C@@](O)(c4ccc(C(C)C)cc4)C4(C)CN(C)C4)c3)no2)CC1` [Example 471], the IC50 was 0.125 µM.

Turning to `COC1(c2nc(-c3cncc([C@@](O)(c4ccc(C(C)C)cc4)C4(C)CN(C)C4)c3)no2)CCN(C(C)=O)CC1` [Example 472], the 50% inhibitory concentration (IC50) turned out to be 0.0798 µM.

On to `CC(C)c1ccc([C@](O)(c2cncc(-c3noc(C4CCN(C(=O)CC(F)(F)F)CC4)n3)c2)C2(C)CN(C)C2)cc1` [Example 473, 1-[4-(3-{5-[(R)-(1,3-Dimethyl-azetidin-3-yl)-hydroxy-(4-isopropyl-phenyl)-methyl]-pyridin-3-yl}-[1,2,4]oxadiazol-5-yl)-piperidin-1-yl]-3,3,3-trifluoro-propan-1-one], for which the 50% inhibitory concentration (IC50) was determined as 0.0776 µM.

Turning to `CC(C)c1ccc([C@](O)(c2cncc(-c3noc(C4CCN(C(=O)CC5COC5)CC4)n3)c2)C2(C)CN(C)C2)cc1` [Example 474, 1-[4-(3-{5-[(R)-(1,3-Dimethyl-azetidin-3-yl)-hydroxy-(4-isopropyl-phenyl)-methyl]-pyridin-3-yl}-[1,2,4]oxadiazol-5-yl)-piperidin-1-yl]-2-oxetan-3-yl-ethanone], the 50% inhibitory concentration (IC50) amounted to 0.121 µM.

`CCC1(c2nc(-c3cncc([C@@](O)(c4ccc(C(C)C)cc4)C4(C)CN(C)C4)c3)no2)CCN(C(C)=O)CC1` [Example 475]: the IC50 came to 0.0547 µM.

Consider `CC(C)c1ccc([C@](O)(c2cncc(-c3noc(C4CCN(C(=O)C5COC5)CC4)n3)c2)C2(C)CN(C)C2)cc1` [Example 476], for which the IC50 was 0.112 µM.

On to `COCC(=O)N1CCC(c2nc(-c3cncc([C@@](O)(c4ccc(C(C)C)cc4)C4(C)CN(C)C4)c3)no2)(C(C)C)CC1` [Example 477], for which the concentration for half-maximal inhibition (IC50) came out at 0.0339 µM.

With `CC(C)c1ccc([C@](O)(c2cncc(-c3noc(C4CCC(=O)N(C)C4)n3)c2)C2(C)CN(C)C2)cc1` (stereo partly drawn) [Example 479, 5-(3-{5-[(R)-(1,3-Dimethyl-azetidin-3-yl)-hydroxy-(4-isopropyl-phenyl)-methyl]-pyridin-3-yl}-[1,2,4]oxadiazol-5-yl)-1-methyl-piperidin-2-one], the half-inhibitory concentration (IC50) was found to be 0.112 µM.

Take `CC(C)c1ccc([C@](O)(c2cncc(-c3noc(C4(C)CCC(=O)NC4)n3)c2)C2(C)CN(C)C2)cc1` (some centres unmarked) [Example 480]: the IC50 stood at 0.128 µM.

For `CC(C)c1ccc([C@](O)(c2cncc(-c3noc(C4CCC(=O)NC4)n3)c2)C2(C)CN(C)C2)cc1` (some centres unmarked) [Example 481], the IC50 came to 0.184 µM.

Take `CC(C)c1ccc([C@](O)(c2cncc(-c3noc(C4(C)CNC(=O)C4)n3)c2)C2(C)CN(C)C2)cc1` (some centres unmarked) [Example 482]: the concentration for half-maximal inhibition (IC50) was 0.0923 µM.

Consider `CC(C)c1ccc([C@](O)(c2cncc(-c3noc(CN4C(=O)CC(C)(C)C4=O)n3)c2)C2(C)CN(C)C2)cc1` [Example 483], for which the half-maximal inhibitory concentration (IC50) was 0.0731 µM.

With `CC(C)c1ccc([C@](O)(c2cncc(-c3noc(CN4CC(=O)NC4=O)n3)c2)C2(C)CN(C)C2)cc1` [Example 484], the IC50 turned out to be 0.593 µM.

In the case of `CC(C)c1ccc([C@](O)(c2cncc(-c3noc(CN4CCCC4=O)n3)c2)C2(C)CN(C)C2)cc1` [Example 485], the 50% inhibitory concentration (IC50) stood at 0.259 µM.

Take `CC(C)c1ccc([C@](O)(c2cncc(-c3noc(CN4C(=O)CNC4=O)n3)c2)C2(C)CN(C)C2)cc1` [Example 486]: the half-inhibitory concentration (IC50) is 0.287 µM.

For `CC(C)c1ccc([C@](O)(c2cncc(-c3noc(CN4C(=O)CN(C)C4=O)n3)c2)C2(C)CN(C)C2)cc1` [Example 487], the IC50 stood at 0.248 µM.

For the molecule `CC(C)c1ccc([C@](O)(c2cncc(-c3noc(CN4CC(=O)N(C)C4=O)n3)c2)C2(C)CN(C)C2)cc1` [Example 488], the IC50 turned out to be 0.382 µM.

Take `CC(C)c1ccc([C@](O)(c2cncc(-c3noc(CN4CCOC4=O)n3)c2)C2(C)CN(C)C2)cc1` [Example 489]: the 50% inhibitory concentration (IC50) amounted to 0.135 µM.

For the molecule `CC(C)c1ccc([C@](O)(c2cncc(-c3noc(CN4CCN(C5CC5)C4=O)n3)c2)C2(C)CN(C)C2)cc1` [Example 490], the IC50 turned out to be 0.143 µM.

Regarding `CC(C)c1ccc([C@](O)(c2cncc(-c3noc(CN4C(=O)CCC4=O)n3)c2)C2(C)CN(C)C2)cc1` [Example 491], the half-maximal inhibitory concentration (IC50) was 0.172 µM.

For `CC(C)c1ccc([C@](O)(c2cncc(-c3noc(CN4CCN(C)C4=O)n3)c2)C2(C)CN(C)C2)cc1` [Example 492], the IC50 is 0.267 µM.

For the molecule `CC(C)c1ccc([C@](O)(c2cncc(-c3noc(CN4CCNC4=O)n3)c2)C2(C)CN(C)C2)cc1` [Example 493], the concentration for half-maximal inhibition (IC50) was found to be 0.185 µM.
